Results: ChEMBL document CHEMBL1132008, “Isoxazoline GPIIb/IIIa antagonists bearing a phosphoramidate” (Bioorg Med Chem Lett, 1999)
pIC50: −log10 of the molar value.

Columns and labels:
[1] = molecular target: T1, Integrin alpha-IIb/beta-3 (Homo sapiens, UniProt P05106+P08514); experiment: Affinity for purified human platelet glycoprotein alpha IIb beta3 integrin receptor in ELISA
[2] = molecular target: T1, Integrin alpha-IIb/beta-3; experiment: Inhibition of fibrinogen (Fg) interaction with GPIIb/IIIa in gel filtered platelets; type: functional
[3] = Inhibition of platelet aggregation in citreated human platelet rich plasma (PRP)

T1 sequence (P05106 27-788 limits assumed): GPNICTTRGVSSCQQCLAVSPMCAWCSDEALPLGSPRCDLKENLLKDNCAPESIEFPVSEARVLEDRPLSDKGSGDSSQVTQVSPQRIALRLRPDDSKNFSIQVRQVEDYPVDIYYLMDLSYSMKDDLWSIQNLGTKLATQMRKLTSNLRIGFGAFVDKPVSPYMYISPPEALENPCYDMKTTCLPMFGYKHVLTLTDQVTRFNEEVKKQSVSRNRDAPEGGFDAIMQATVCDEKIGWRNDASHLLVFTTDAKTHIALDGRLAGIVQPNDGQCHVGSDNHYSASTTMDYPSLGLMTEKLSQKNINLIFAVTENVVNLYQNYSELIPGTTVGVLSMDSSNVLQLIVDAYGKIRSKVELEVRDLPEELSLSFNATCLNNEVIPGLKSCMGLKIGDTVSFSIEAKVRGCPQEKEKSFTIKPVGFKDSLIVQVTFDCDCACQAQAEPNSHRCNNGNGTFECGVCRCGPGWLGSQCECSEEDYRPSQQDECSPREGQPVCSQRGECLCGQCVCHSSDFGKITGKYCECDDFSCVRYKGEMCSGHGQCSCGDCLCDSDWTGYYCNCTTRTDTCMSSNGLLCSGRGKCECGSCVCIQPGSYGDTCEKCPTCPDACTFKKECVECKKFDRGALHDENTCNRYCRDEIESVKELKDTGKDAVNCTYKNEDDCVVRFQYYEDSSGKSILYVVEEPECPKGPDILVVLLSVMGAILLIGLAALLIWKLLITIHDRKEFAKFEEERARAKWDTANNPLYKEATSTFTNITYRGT
T1 sequence (P08514 32-887 limits assumed): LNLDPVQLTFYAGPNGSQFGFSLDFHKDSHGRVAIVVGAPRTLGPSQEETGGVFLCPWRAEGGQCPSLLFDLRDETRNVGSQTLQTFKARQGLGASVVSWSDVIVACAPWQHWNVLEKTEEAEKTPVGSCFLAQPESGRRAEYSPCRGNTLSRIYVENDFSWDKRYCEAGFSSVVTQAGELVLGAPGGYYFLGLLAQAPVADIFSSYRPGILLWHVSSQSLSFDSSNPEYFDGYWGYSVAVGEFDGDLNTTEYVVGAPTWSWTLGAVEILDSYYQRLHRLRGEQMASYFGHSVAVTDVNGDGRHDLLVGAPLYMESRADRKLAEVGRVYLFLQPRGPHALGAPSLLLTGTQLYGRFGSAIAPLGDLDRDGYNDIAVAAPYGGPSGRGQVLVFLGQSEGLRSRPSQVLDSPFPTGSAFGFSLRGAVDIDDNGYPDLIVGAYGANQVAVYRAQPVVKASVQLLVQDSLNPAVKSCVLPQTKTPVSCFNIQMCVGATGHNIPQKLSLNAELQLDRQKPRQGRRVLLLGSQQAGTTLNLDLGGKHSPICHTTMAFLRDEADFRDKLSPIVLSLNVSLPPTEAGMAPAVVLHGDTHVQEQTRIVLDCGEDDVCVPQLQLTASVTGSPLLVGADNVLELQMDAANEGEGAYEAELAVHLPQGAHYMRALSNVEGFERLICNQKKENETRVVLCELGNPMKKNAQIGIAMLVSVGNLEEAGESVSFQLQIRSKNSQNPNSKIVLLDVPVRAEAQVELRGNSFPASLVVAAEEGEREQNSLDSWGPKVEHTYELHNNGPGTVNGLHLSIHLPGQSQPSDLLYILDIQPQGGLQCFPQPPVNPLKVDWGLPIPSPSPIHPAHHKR
T1 sequence (P08514 891-1039 limits assumed): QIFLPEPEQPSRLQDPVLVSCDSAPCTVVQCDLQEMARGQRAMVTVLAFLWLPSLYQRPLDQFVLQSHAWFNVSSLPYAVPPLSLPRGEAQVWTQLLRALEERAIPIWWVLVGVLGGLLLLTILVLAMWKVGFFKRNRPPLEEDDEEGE

| SMILES | pIC50 [1] | pIC50 [2] | pIC50 [3] |
| --- | --- | --- | --- |
| N=C(N)c1ccc(C2=NOC(CC(=O)NCCC(=O)O)C2)cc1 (stereo not given) |  | 6.85 |  |
| N=C(N)c1ccc(C2=NOC(CC(=O)NCC(NP(=O)(O)O)C(=O)O)C2)cc1 (stereo not given) | 8.59 | 6.64 |  |
| CCCCOP(=O)(NC(CNC(=O)CC1CC(c2ccc(C(=N)N)cc2)=NO1)C(=O)O)OCCCC (stereo not given) | 8.92 | 7.26 |  |
| COP(=O)(NC(CNC(=O)CC1CC(c2ccc(C(=N)N)cc2)=NO1)C(=O)O)OC (stereo not given) | 9.26 | 7.27 |  |

The remaining molecules from weak to strong by pIC50 [2], led by results:

| pIC50 [1] | pIC50 [2] | pIC50 [3] | SMILES |
| --- | --- | --- | --- |
| 8.77 | 6.99 |  | CCOP(=O)(NC(CNC(=O)CC1CC(c2ccc(C(=N)N)cc2)=NO1)C(=O)O)OCC (stereo not given) |
| 9.07 | 7.14 |  | CC(C)OP(=O)(NC(CNC(=O)CC1CC(c2ccc(C(=N)N)cc2)=NO1)C(=O)O)OC(C)C (stereo not given) |
| 8.82 | 7.34 |  | C=CCOP(=O)(NC(CNC(=O)CC1CC(c2ccc(C(=N)N)cc2)=NO1)C(=O)O)OCC=C (stereo not given) |
|  | 7.68 | 7.30 | CCCCOC(=O)N[C@@H](CNC(=O)C[C@H]1CC(c2ccc(C(=N)N)cc2)=NO1)C(=O)O |
